Laboratory results published in US20090048229A1, “Methods for promoting wakefulness” (priority 2007, published 2009).

What was measured:
AChE = AChE (Homo sapiens, UniProt P22303); format: biochemical
[1] = biological target: T1, human recombinant acetylcholinesterase (Homo sapiens, UniProt P22303); assay: biochemical; conditions: for IC50: 30 min preincubation, 25° C., read-out: Inhibition of AChE IC50; for inhibition at 10 µM: read-out: Inhibition of AChE (%) 10 μM
T1 construct: purchased Sigma Chemical Co (St. Louis, Mo.) C1682
Protocol: All reagents employed in this experiment were of analytical grade. Acetylthiocholine iodide and 5,5′-dithiobis-(2-nitro)benzoic acid (DTNB) and human recombinant acetylcholinesterase (C1682) were purchased from Sigma Chemical Co (St. Louis, Mo.).
The enzyme, compound or stigmine and buffer were preincubated for 30 minutes. At the end of the preincubation period, the substrate acetylthiocholine was added. The final assay mixture contained 10 mM Tris-buffer (pH 8), 0.3 mM Acetylthiocholine and 0.33 mM DTNB and 0.08 U/ml enzyme. At least five (5) different concentrations of the compound or stigmine were assayed per IC50 experiment.
Hydrolysis of acetylthiocholine was monitored indirectly by measurement of the formation of the conjugate between thiocholine and DTNB.

[2] = test system: male CD IGS (Sprague Dawley derived) rats; assay: Induction of hypothermia after subcutaneous administration; format: in vivo, rat; conditions: for Induction of hypothermia MED (mg/kg s.c.): hypothermia = fall in temperature of >0.5° C.; for fall in body temperature: subcutaneous administration
Source text: Cholinergic agonists cause hypothermia through a central mechanism of action (Freedman et al, 1989. Direct measurement of muscarinic agents in the central nervous system of mice using ex vivo binding. Eur. J. Pharmacol. 174:253-260). […] Since a premise of the present invention is that carbomyl esters would liberate the conjugated amine in the CNS only after inhibition of acetylcholinesterase, induction of hypothermia provides a useful correlation with the acetylcholinesterase inhibition detected in vitro and in vivo.
Hypothermia was defined as a fall in temperature of >0.5° C.
Hypothermia is a marker of CNS penetration for ACHE inhibitors.
If less soluble, the maximum injection volume was 5 mL/kg.
Baseline temperatures were taken just before injection.

[3] = test system: total cholinesterase activity in the brain; assay: Total cholinesterase activity in brain homogenate after i.p. injection; format: in vivo, rat; conditions: brain 3 hours after injection; for Relative ChE Activity: relative to saline treated rats
Protocol: Animals were decapitated 3 hours after injection and the brains rapidly removed. The brain tissue was diced into small pieces, placed on ice and immediately homogenized with a Polytron PT1200 (Kinematic AG) in 10 ml ice cold Tris with 0.1% Triton-X and protease inhibitors. The protease inhibitors in the extraction buffer were Antipain (10 μM), Aprotinin (5 TIU/mg protein), Bestatin ([…]), Leupeptin (10 μM) and Pepstatin (1 μM). The final dilution of the homogenate in the final assay mixture was 120-fold.
Total cholinesterase activity was determined by a modification of the colorimetric method of Ellmann, et al. (Biochem. Pharmacol., 7:88-95 (1961)), as described above. Hydrolysis of acetylthiocholine was monitored indirectly by measurement of the formation of the conjugate between thiocholine and DTNB. Optical density at 405 nm was recorded during five (5) minutes employing a microplate spectrophotometer (Polarstar, BMG Labtech), and plotted against time. The initial rates were calculated from the slope of the linear portion of the graph.
Cholinesterase activity was normalized for protein content of the homogenate. Relative cholinesterase activity was calculated as the ratio of normalized cholinesterase activity in a rat treated with a control compound or a carbamoyl ester over normalized cholinesterase activity in saline treated rats.

BuChE = BuChE (Homo sapiens, UniProt P06276); assay: In vitro screening assay, BuChE inhibition; format: biochemical
Source text: An in vitro screening assay with various conjugates was completed according to the methods described in Ellman G L et al., Biochem Pharmacol., 7:88-95 (1961) and in Nadarajah B, J. Anal. Toxicol., 16:192-193 (1992), both of which are herein incorporated by reference in their entireties. The assay method was completed according to the following: […]

male Wistar rats = assay: Wake promotion (EEG/EMG sleep-wake, locomotor activity, body temperature); format: in vivo, rat; conditions: for duration of wakefulness: administered 5 hours after lights on (CT-5), FIG. 2; for rebound hypersomnolence: FIG. 3; for effect on body temperature: FIG. 4; for locomotor hyperactivity / stimulant activity: FIG. 5
Protocol: Test compounds in various dose ranges or vehicle were administered to male Wistar rats 5 hours after lights on (CT-5). EEG, EMG, locomotor activity, drink- and food-related activity, and body temperature were concurrently monitored for 30 hr before and after treatment from rats living in separate isolated recording chambers. Sleep-wake discriminations were carried out using SCORE2004™, proprietary real-time hardware and software technology of Hypnion, Inc. (Lexington, Mass.). Comparisons were made between the reference compounds: d-amphetamine, rivastigmine, modafinil, and the following carbamoyl ester test compounds: […]

butylryl cholinesterase = butylryl cholinesterase (Homo sapiens, UniProt P06276); assay: Inhibition of butyrylcholinesterase; format: biochemical; conditions: read-out: Inhibition of BuChE (%) 10 μM
Protocol: The inhibition of butylryl cholinesterase was determined using methods known in the art e.g., Alcala Molel M. et al. (2003) Characterization of the anticholinesterase activity of two new tacrin-huperzine A hybrids. Neuropharmacology, 44 (6), 749-755.

[4] = test system: rats trained to discriminate methamphetamine from saline; assay: Two-lever drug discrimination in methamphetamine trained rats; conditions: 0.32-10 mg/kg p.o.

BuChE, sequence (P06276 29-602): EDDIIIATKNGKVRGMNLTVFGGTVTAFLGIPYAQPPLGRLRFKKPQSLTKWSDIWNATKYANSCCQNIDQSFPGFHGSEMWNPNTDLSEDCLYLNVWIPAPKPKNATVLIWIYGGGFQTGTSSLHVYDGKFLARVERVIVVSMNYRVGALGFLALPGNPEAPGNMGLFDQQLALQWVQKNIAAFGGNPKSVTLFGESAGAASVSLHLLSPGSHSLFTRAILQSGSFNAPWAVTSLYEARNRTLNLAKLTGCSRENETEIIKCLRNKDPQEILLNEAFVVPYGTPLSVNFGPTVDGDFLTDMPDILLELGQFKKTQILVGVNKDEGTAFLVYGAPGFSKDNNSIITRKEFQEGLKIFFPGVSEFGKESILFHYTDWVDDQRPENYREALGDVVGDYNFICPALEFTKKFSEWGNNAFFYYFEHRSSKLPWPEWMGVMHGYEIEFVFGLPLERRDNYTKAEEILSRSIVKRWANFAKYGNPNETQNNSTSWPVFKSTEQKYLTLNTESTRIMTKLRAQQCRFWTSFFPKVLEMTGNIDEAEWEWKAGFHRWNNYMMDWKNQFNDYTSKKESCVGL
AChE, sequence (P22303 32-614): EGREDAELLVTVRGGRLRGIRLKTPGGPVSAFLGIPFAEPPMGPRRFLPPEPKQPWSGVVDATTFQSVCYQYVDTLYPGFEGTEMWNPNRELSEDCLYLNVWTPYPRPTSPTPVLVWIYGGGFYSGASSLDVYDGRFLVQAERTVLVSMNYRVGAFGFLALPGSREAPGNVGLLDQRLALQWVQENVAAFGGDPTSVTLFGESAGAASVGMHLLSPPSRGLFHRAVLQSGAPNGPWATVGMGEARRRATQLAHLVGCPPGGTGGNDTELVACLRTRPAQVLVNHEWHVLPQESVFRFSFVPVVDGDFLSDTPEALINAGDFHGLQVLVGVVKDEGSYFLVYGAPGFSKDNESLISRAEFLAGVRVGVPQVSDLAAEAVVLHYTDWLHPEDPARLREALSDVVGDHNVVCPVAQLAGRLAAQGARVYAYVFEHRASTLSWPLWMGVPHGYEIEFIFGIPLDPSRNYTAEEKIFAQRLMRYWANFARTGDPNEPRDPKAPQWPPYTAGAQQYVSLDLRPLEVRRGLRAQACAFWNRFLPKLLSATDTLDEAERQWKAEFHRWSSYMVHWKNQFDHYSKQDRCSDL
T1 sequence (P22303 32-614): as above
butylryl cholinesterase, sequence (P06276 29-602): as the sequence (P06276 29-602) above

| SMILES | AChEI (%) 1 μM (AChE) [%] | AChEI (%) 10 μM (AChE) [%] | IC50 [1] [µM] | inhibition at 10 µM [1] [%] | Induction of hypothermia MED (mg/kg s.c.) [2] | fall in body temperature [2] | BuChEI (%) 10 μM (BuChE) [%] | inhibition at 10 µM (butylryl cholinesterase) [%] | also measured |
| --- | --- | --- | --- | --- | --- | --- | --- | --- | --- |
| C[C@H](Cc1ccccc1)NC(=O)Oc1cccc([C@H](C)N(C)C)c1 [Compound 9, S-riva-l-amphetamine] | 35 | 79 | 3.1 | 79 | 10 mg/kg s.c. | dose-related-related fall in body temperature | 90 | 90 | ChE inhibition ([3]; 8 mg/kg i.p.): 41%; Relative ChE Activity ([3]; 8 mg/kg i.p.): 59%; BuChEI (%) 1 μM (BuChE; 1 μM): 27%; duration of wakefulness (male Wistar rats): dose-related increase in wakefulness |
| C[C@H](Cc1ccccc1)N(C)C(=O)Oc1cccc([C@H](C)N(C)C)c1 [Compound 7, S-riva-l-methamphetamine] | 32 | 79 | 3.2 | 79 | ≦1 mg/kg s.c. | dose-related-related fall in body temperature | 17 | 17 | ChE inhibition ([3]; 2 mg/kg i.p.): 38%; Relative ChE Activity ([3]; 2 mg/kg i.p.): 62%; rebound hypersomnolence (male Wistar rats; listed as Compound B): rebound hypersomnolence was not observed; rebound hypersomnolence (male Wistar rats; listed as compound B): lack of hypersomnolence; effect on body temperature (male Wistar rats; listed as Compound B): did not cause an increase in body temperature (hyperthermia), but rather caused an opposite reduction in body temperature; effect on body temperature (male Wistar rats; listed as compound B): absence of hypothermia; locomotor hyperactivity / stimulant activity (male Wistar rats; listed as Compound B): did not cause locomotor hyperactivity; locomotor hyperactivity / stimulant activity (male Wistar rats; listed as compound B): lack of locomotor stimulant activity; duration of wakefulness (male Wistar rats; listed as B): dose-related increase in wakefulness; duration of wakefulness (male Wistar rats; listed as Compound B): unexpectedly long increase in wakefulness that surpassed that seen with the reference compounds tested; stimulus generalization (selection of methamphetamine lever) [4]: did not select the methamphetamine lever |
